The source of these data is patent publication US20100129856A1, “Methods and Devices for Cell Signaling Under Pulse Stimulation” (priority 2008, published 2010).

No end group written: not given here.

In test [1] the target is T1, PAR1 receptor (Homo sapiens, UniProt P25116).
T1 construct: triggered an almost indistinguishable DMR signal in A549 cells; host or cells: A549 (human lung carcinoma), not starved
T1 sequence (P25116 22-425): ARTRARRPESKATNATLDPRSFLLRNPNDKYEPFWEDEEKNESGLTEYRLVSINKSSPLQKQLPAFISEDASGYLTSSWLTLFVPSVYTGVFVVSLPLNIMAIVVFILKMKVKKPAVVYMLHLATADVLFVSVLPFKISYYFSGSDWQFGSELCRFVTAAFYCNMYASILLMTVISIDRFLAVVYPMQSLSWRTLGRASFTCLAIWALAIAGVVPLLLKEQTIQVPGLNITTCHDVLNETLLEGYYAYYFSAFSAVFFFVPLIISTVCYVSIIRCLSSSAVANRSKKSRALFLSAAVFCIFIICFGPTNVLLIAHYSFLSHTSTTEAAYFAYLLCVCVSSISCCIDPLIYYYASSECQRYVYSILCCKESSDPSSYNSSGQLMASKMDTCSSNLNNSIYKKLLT
Kind of test: Microfluidics-RWG biosensor DMR assay of A549 cells with PAR1 agonists. It is filed as cell-based. To be noted: for EC100: DMR; for Reversibility of the triggered cellular response: agonist removed after 30 min; for Response of pre-treated cells to second stimulation with 10 unit/ml thrombin: first exposure 30 min (SFLLR-amide 10 μM or thrombin 5 unit/ml), HBSS ~2 hours, then thrombin, FIG. 10; for P-DMR signal maximal amplitude (shift in resonant wavelength): thrombin 5 unit/ml, SFLLR-amide 10 μM, constant flow 1 microliter per min, FIG. 9. How it is done: (§1) Cells were typically grown using ˜1 to 2×10^4 cells per well at passage 3 to 15 suspended in 50 μl of the corresponding culture medium in the biosensor microplate, and were cultured at 37° C. under air/5% CO2 for ˜1 day. Except for A431 which was subject to ˜20 hr starvation through continuously culture in the serum-free DMEM, the A459 cells were directly assayed without starvation. The confluency for all cells at the time of assays was ˜95% to 100%. For cell culture in the microfluidics-biosensor chamber systems, ˜4×10^4 cells suspended in 10 μl the medium containing 10% FBS were injected into the chamber, and were cultured at 37° C. under air/5% CO2 until ˜95% confluency was reached (˜1 day). To prevent drying during the culture, the biosensor device was maintained within a petri dish with a cover, and extra cell medium within the dish.
(§2) Label-free biosensor cell assays: Corning RWG (resonant waveguide grating) imaging system was used for label-free biosensor cell assays. The imaging system, based on swept wavelength interrogation, is capable of high resolution imaging, with a spatial resolution of 6 micron in the direction perpendicular to the propagation path of the coupled light, a resolution of about 150 or about 6 microns in the direction parallel to the propagation path of the coupled light. The cellular responses across the whole sensor were recorded in real time at each pixel (6 microns×6 microns). The cellular responses at defined locations or areas of the biosensor surface were averaged to generate responses of a population of cells within the detection area(s).
The A431 cells reached high confluency before assays, and were subject to starvation for overnight with serum free medium. For A549 cells, cells were grown to high confluency and used for assays without starvation. Before assays, the cell medium was replaced with 1× Hanks' balanced salt solution (HBSS) having 20 mM Hepes buffer, and incubated within the imaging system for about 1 hour. The chamber was filled with 6.6 micro-liters buffered solution. The HBSS buffer solution was initially introduced into the chamber from the inlet and flowed through the biosensor with a low flow rate (typically 1 μl/min or 1 microliter/min) using a controlled pump until a steady baseline was reached. Then, a first solution, typically a solution containing a receptor agonist or a compound dissolved in the HBSS buffer, was introduced by switching the valve, and flowed through the biosensor for a period of time (e.g., 1 min, or 5 min, or 30 min). Subsequently, the HBSS buffer solution was reintroduced and flowed through the biosensor to replace the first solution. After certain time period, a second solution, typically a solution containing a receptor agonist or a compound, either different or the same as the first solution, was introduced and flowed through the biosensor continuously to trigger a cellular response. The flow rate was typically relatively low (˜0.5 μ/min to 5 μl/min), such that no mechanical sensitive cellular responses were triggered, and the cellular responses observed were largely due to the chemical(s) in the solution. Different combinations of these steps can be applied, depending on the purpose of the assays. The cellular responses throughout the assays were recorded using the high resolution imaging system. Depending on the biosensor insert used, the biosensor has a dimension of 3 mm×3 mm or 2 mm×2 mm. The chamber dimension is a length of about 9 mm from the inlet to the outlet, a width of 5 mm, and a height of 100 microns from the sensor surface to the bottom surface of the chamber. The total volume of solution required to fill the chamber is about 6 micro-liters.
For biosensor cellular assays, a baseline was established first. All studies were carried out at controlled temperature (22° C.) and with three replicates for each measurement, unless specifically mentioned. […]

Test [2] concerns quiescent A431 cells. The test can be described thus: Microfluidics-RWG biosensor DMR assay under pulse or sustained stimulation. To be noted: FIG. 8; for DMR signal under pulse stimulation compared with sustained epinephrine response: 2 min pulse, 2 nM epinephrine, 100 nM salbutamol, flow 1 microliter/min. It counts as cell-based, human. How it is done:
as §1, §2
The A431 cells reached high confluency before assays, and were subject to starvation for overnight with serum free medium. For A549 cells, cells were grown to high confluency and used for assays without starvation. Before assays, the cell medium was replaced with 1× Hanks' balanced salt solution (HBSS) having 20 mM Hepes buffer, and incubated within the imaging system for about 1 hour. […] The cellular responses throughout the assays were recorded using the high resolution imaging system. […]

Test [3] addresses T2, β2-adrenergic receptor (β2AR) (Homo sapiens, UniProt P07550).
T2 construct: 2 nM epinephrine-induced DMR signal of quiescent A431 cells; host or cells: A431 (human epidermoid carcinoma), serum-starved (quiescent)
Kind of test: Buffer swapping RWG biosensor DMR assay (microplate) for long-acting agonism. It is filed as cell-based. The procedure: Cells were typically grown using ˜1 to 2×10^4 cells per well at passage 3 to 15 suspended in 50 μl of the corresponding culture medium in the biosensor microplate, and were cultured at 37° C. under air/5% CO2 for ˜1 day. […] The confluency for all cells at the time of assays was ˜95% to 100%.

[4] abbreviates: quiescent A431 cells, pulse about 60 sec, 100 nM norepinephrine, 100 nM salbutamol, 100 nM salmeterol, FIG. 7b.

T2 sequence (P07550 whole entry): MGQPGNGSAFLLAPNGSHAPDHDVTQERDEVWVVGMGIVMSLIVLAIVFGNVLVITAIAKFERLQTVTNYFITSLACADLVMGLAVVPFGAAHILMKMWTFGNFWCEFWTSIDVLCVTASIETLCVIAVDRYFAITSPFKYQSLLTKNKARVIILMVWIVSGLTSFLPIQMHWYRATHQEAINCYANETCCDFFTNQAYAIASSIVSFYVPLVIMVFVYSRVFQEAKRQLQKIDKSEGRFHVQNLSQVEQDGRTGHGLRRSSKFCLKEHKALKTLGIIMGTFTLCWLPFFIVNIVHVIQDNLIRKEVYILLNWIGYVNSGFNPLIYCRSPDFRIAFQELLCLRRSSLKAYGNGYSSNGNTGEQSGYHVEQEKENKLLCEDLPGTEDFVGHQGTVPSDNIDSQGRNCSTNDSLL

On to `C[C@@H]1C[C@@H]([C@H](O)CC2CC(=O)NC(=O)C2)C(=O)[C@@H](C)C1` [cycloheximide], for which the “Effect on the second thrombin response of thrombin-treated A549 cells” value in test [1] (10 μM cycloheximide in every solution, data not shown) is “largely eliminated”.

`CNC[C@H](O)c1ccc(O)c(O)c1` [epinephrine]: in test [2] (2 nM epinephrine flowed throughout the assay, 1 microliter/min), the “DMR signal under sustained stimulation at slow flow rate” value was “comparable to that obtained using microplate-based sustained response”. Further, in test [2], the “DMR signal under pulse stimulation compared with sustained epinephrine response” value is recorded as “much smaller response”. Further, the “Response to second stimulation with 2 nM epinephrine after sustained pre-treatment” value in test [3] (A431 cells pre-treated with 2 nM epinephrine under sustained stimulation, data not shown) is given as “completely desensitized”. Also, the “Long-acting or short-acting agonism at the β2AR” value in test [3] (concluded from pulse stimulation through buffer swapping, quiescent A431 cells) is on record as “short-acting agonist”. In addition, the “Effect of pulse pre-treatment on the 2 nM epinephrine-induced DMR signal” value was “little impact” in test [3] (setting [4]) and “did not cause the de-sensitization” in test [3] (quiescent A431 cells, pulse about 150 sec, 0.5 nM salmeterol, 1 nM CGP12177, 0.1 nM formeterol, FIG. 7a).

In the case of `NC[C@H](O)c1ccc(O)c(O)c1` [norepinephrine], the “Effect of pulse pre-treatment on the 2 nM epinephrine-induced DMR signal” value in test [3] (setting [4]) is recorded as “little impact”.

In the case of `CC(C)(C)NCC(O)c1ccc(O)c(CO)c1` (stereo not shown) [salbutamol], the “DMR signal under pulse stimulation compared with sustained epinephrine response” value in test [2] is “much smaller response”.

On to “SFLLR-amide (SFLLR-NH2; UniProt P25116 42-46, looked up, fragment)”, for which, in test [1] (A549 cells), the EC100 came out at 10 µM, the “Reversibility of the triggered cellular response” value was “largely reversible”, the “Response of pre-treated cells to second stimulation with 10 unit/ml thrombin” value is “still able to respond to the second stimulation with thrombin with slightly smaller amplitude” and the “P-DMR signal maximal amplitude (shift in resonant wavelength)” value is on record as approximately 400 picometers. Moreover, the “Plateau level of DMR signal above the baseline after switching back to HBSS” value in test [1] (A549 cells, 10 μM agonist replaced with HBSS 30 min after stimulation, FIG. 9a) is reported as “about 120 picometers”.

With thrombin, in test [1] (A549 cells), the EC100 stood at 5 unit/ml, the “Reversibility of the triggered cellular response” value is “largely irreversible”, the “Response of pre-treated cells to second stimulation with 10 unit/ml thrombin” value is “only gave rise to a little response” and the “P-DMR signal maximal amplitude (shift in resonant wavelength)” value is recorded as approximately 400 picometers. Besides, in test [1] (A549 cells, 5 unit/ml agonist replaced with HBSS 30 min after stimulation, FIG. 9b), the “DMR signal after switching back to HBSS” value is on record as “still maintained elevated signal”.
